SMILES strings stand for the structures. pEC50: −log10 of the molar value. Some results are limits rather than exact numbers.

Experimental findings from patent publication US20230416262A1, “TRPML MODULATORS” (Casma Therapeutics, Inc., priority 2020, published 2023) are described below.

This assay relates to TFEB. Nature of the assay: TFEB nuclear translocation assay. The format is cell-based. The settings on record: Homo sapiens; HeLa wt or HeLa TRPML1 KO cells, treated for 2 hrs; ratio of nuclear to ring-region TFEB intensity. How it is done:
For the TFEB nuclear translocation assay, HeLa wt or HeLa TRPML1 KO cells were plated at 2700 cells/well into black-walled, 384-well Cell carrier Ultra tissue culture treated plates in complete media and incubated overnight. The next day, cells are treated for 2 hrs with compounds and incubated at 37° C. Cells were then fixed for 30 minutes at room temperature in 4% final PFA and washed five times with 90 μL PBS. PBS is aspirated from the wells and the cells are blocked with 7.5 μL blocking buffer (1.1 PBS/Odyssey block buffer containing 0.1% triton x-100 and 1% goat serum). After 30-60 minutes of block, 7.5 μL of primary anti-TFEB (rabbit) antibody is added for a final dilution of 1:200 antibody in 15 μL blocking buffer. Plates are incubated overnight at 4° C. The following day, plates are washed again into PBS, 90 μL with 5 washes, all PBS is aspirated from the wells and the cells are incubated for 1 hr in 1:1000 goat-anti rabbit Alexa 488 secondary antibody, also containing 10 μg/mL Hoechst 33342. After the 1 hr RT incubation, plates are washed a final time into PBS, sealed with foil and imaged with an automated epifluorescence microscopy (PerkinElmer Operetta CLS). Four different fields were imaged per well using ×20 magnification for DAPI and FITC filter sets. Images were quantified using PerkinElmer Harmony software, briefly: apply flatfield correction (basic/advanced) for input images. Use the Find Nuclei building block with channel set at Hoechst to find the nuclei. Use the Find cytoplasm building block with channel set to Alexa 488 to find the cytoplasm. Use select cell region with Channel set at Alexa 488 and region of interest as Nuclei and define outer border at 0 μm and inner at 45 μm to cover complete nuclei. Use select cell region with Channel set at Alexa 488 and region of interest as ring region and define outer border at −5 μm and inner at 0 μm to define a ring around the nucleus. Use the find calculate intensity parameter to calculate intensity of the nuclear region and the ring region. Define results as Number of nuclei and ratio of A/B where A is Intensity of Nuclei and B is intensity of the ring region.
Take `CN(C)S(=O)(=O)c1ccc(S(=O)(=O)N2CC3(CCOC3)c3ccccc32)cc1` (centres unmarked) [Compound I-76, 4-({1,2-dihydrospiro[indole-3,3′-oxolan]-1-yl}sulfonyl)-N,N-dimethylbenzene-1-sulfonamide]: the pEC50 is 5.10 to 5.70.

With `CN(C)S(=O)(=O)c1ccc(S(=O)(=O)N2CC3(CCCO3)c3ccccc32)cc1` (centres unmarked) [Compound I-77, 4-({1,2-dihydrospiro[indole-3,2′-oxolan]-1-yl}sulfonyl)-N,N-dimethylbenzene-1-sulfonamide], the pEC50 was at least 5.70.

Turning to `CN(C)S(=O)(=O)c1ccc(S(=O)(=O)N2CC3(CCCC3)c3ncccc32)cc1` [Compound I-78, N,N-dimethyl-4-(spiro[cyclopentane-1,3′-pyrrolo[3,2-b]pyridin]-1′(2′H)-ylsulfonyl)benzenesulfonamide], the pEC50 was 5.10 to 5.70.

`CN1CCC2(CC1)CN(S(=O)(=O)Cc1ccccc1)c1ccccc12` [Compound I-82, 1′-methyl-1-phenylmethanesulfonyl-1,2-dihydrospiro[indole-3,4′-piperidine]]: the pEC50 is at most 5.00.

As to `CN1CCC2(CC1)CN(S(=O)(=O)c1ccc(S(=O)(=O)N(C)C)cc1)c1ccccc12` [Compound I-84, N,N-dimethyl-4-({1′-methyl-1,2-dihydrospiro[indole-3,4′-piperidin]-1-yl}sulfonyl)benzene-1-sulfonamide], the negative-log EC50 (pEC50) was at most 5.00.

Take `O=S(=O)(Cc1ccccc1)N1CC2(CCN(CC(F)(F)F)CC2)c2ccccc21` [Compound I-85, 1-phenylmethanesulfonyl-1′-(2,2,2-trifluoroethyl)-1,2-dihydrospiro[indole-3,4′-piperidine]]: the pEC50 was at most 5.00.

`CN1CCC2(C1)CN(S(=O)(=O)Cc1ccccc1)c1ccccc12` (centres unmarked) [Compound I-88, 1′-methyl-1-phenylmethanesulfonyl-1,2-dihydrospiro[indole-3,3′-pyrrolidine]]: the pEC50 is at most 5.00.

As for `CN1CCC2(C1)CN(S(=O)(=O)c1ccc(C(F)F)cc1)c1ccccc12` (centres unmarked) [Compound I-89], the pEC50 was at most 5.00.

`CN1CCC2(C1)CN(S(=O)(=O)c1ccc(S(=O)(=O)N(C)C)cc1)c1ccccc12` (centres unmarked) [Compound I-90, N,N-dimethyl-4-({1′-methyl-1,2-dihydrospiro[indole-3,3′-pyrrolidin]-1-yl}sulfonyl)benzene-1-sulfonamide]: the pEC50 is at most 5.00.

Regarding `CN(C)S(=O)(=O)c1ccc(S(=O)(=O)N2CC3(CCN(CC(F)(F)F)C3)c3ccccc32)cc1` (centres unmarked) [Compound I-93, N,N-dimethyl-4-{[1′-(2,2,2-trifluoroethyl)-1,2-dihydrospiro[indole-3,3′-pyrrolidin]-1-yl]sulfonyl}benzene-1-sulfonamide], the pEC50 was at least 5.70.

Turning to `CN(C)S(=O)(=O)c1ccc(S(=O)(=O)N2CC3(CCN(CC4CCOCC4)C3)c3ccccc32)cc1` (centres unmarked) [Compound I-96, N,N-dimethyl-4-({1′-[(oxan-4-yl)methyl]-1,2-dihydrospiro[indole-3,3′-pyrrolidin]-1-yl}sulfonyl)benzene-1-sulfonamide], the pEC50 was 5.10 to 5.70.

In the case of `CN(C)S(=O)(=O)c1ccc(S(=O)(=O)N2CC3(CN(Cc4ccccc4)C3)c3ccccc32)cc1` [Compound I-102, 4-({1-benzyl-1′,2′-dihydrospiro[azetidine-3,3′-indol]-1′-yl}sulfonyl)-N,N-dimethylbenzene-1-sulfonamide], the pEC50 is 5.10 to 5.70.

Turning to `CN(C)S(=O)(=O)c1ccc(S(=O)(=O)N2CC3(CCN(c4ccc(Cl)cc4F)CC3)c3ccccc32)cc1` [Compound I-106, 4-{[1′-(4-chloro-2-fluorophenyl)-1,2-dihydrospiro[indole-3,4′-piperidin]-1-yl]sulfonyl}-N,N-dimethylbenzene-1-sulfonamide], the pEC50 was at least 5.70.

`O=C(OCc1ccccc1)N1CCC2(C1)CN(S(=O)(=O)Cc1ccccc1)c1ccccc12` (centres unmarked) [Compound I-115, benzyl 1-phenylmethanesulfonyl-1,2-dihydrospiro[indole-3,3′-pyrrolidine]-1′-carboxylate]: the pEC50 is 5.10 to 5.70.

By pEC50 is commonly meant the negative decadic logarithm of the EC50, by convention in mol/L.
